Laboratory results: US20240190950A1, “METHOD OF TREATING DISEASES USING GREMLIN1 ANTAGONISTS” (SHANGHAI JIAO TONG UNIVERSITY, priority 2021, published 2024)

Tests used:
Assay type in all cases: cell-based, human
[1] = test system: FGFR1/MEK/ERK signaling pathway; test: FGFR1/MEK/ERK phosphorylation in PCa cell lines (immunoblotting)
Description: In order to test whether Gremlin1 promoted the FGFR-MAPK signaling, we first performed analysis of the expression levels of the four FGFRs in CRPC patients. […] We treated LNCaP and PC3 with GREM1 in different concentrations (1 ng/ml, 10 ng/ml, 100 ng/ml) and examined phosphorylation levels of FGFR1, MEK and ERK.
(§1) MAPK signaling can be activated through many membrane receptors besides FGFR. To test whether the activation of MAPK pathway by GREM1 was via FGFR, we constructed a FGFR1 knockout LNCaP subline by the CRISPR/Cas9 method. […] To further test whether the tumor promoting effect of GREM1 was through FGFR, we utilized small molecule inhibitors of FGFR or EGFR.
14E3 was tested to target GREM1 in human PCa.

LNCaP cells = test: GREM1-promoted PCa cell proliferation and sphere formation with FGFR1/MEK inhibitors or BMP4
Text: as §1

[2] = test system: GREM1 expression in LNCaP cells; test: Regulation of GREM1 expression by AR agonist/antagonist in LNCaP cells (q-PCR, immunoblot, luciferase reporter); details: R1881 1 nM, enzalutamide 10 μg/ml
Text: AR plays a central role in PCa. To assess the relationship between Gremlin1 and AR signaling, we performed further IHC staining for Gremlin1 and PSA, a classic downstream target of AR, on sections of CRPC specimens. […] In addition, we detected a significant increase of GREM1 in a castration resistant LNCaP cell line (termed as LNCaP R), which was derived from xenograft LNCaP tumors implanted in castrated mice, compared to a control LNCaP cell line generated from xenografts in intact mice (FIG. 2A). We then asked whether the expression of GREM1 was regulated by AR signaling. We utilized an AR expressing lentivirus or the CRISPR/Cas9 method to achieve AR upregulation (FIG. 2B) or knockout in the LNCaP PCa cell line (FIG. 2D). […] This conclusion was supported by AR agonist R1881 and antagonist Enzalutamide treatment experiments (FIG. 1D, 1E).
Additionally, we carried out a luciferase reporter assay.

| Compound | activation of MAPK/FGFR1 signaling axis by GREM1 in presence of inhibitor ([1]; inhibitor 1 μM, Gremlin1 100 ng/ml, PC3 and LNCaP-resistance cells) | proliferation promoting role of GREM1 (LNCaP cells) | sphere-formation promoting role of GREM1 (LNCaP cells) | GREM1 mRNA transcription [2] | GREM1 promoter driven luciferase activity [2] | Gremlin1 protein level [2] | time of highest MAPK signaling activation ([1]; FGF 20 ng/ml, PC3 and LNCaP cells, quickly diminished afterwards) [min] |
| --- | --- | --- | --- | --- | --- | --- | --- |
| CCN1CCN(c2ccc(Nc3cc(N(C)C(=O)Nc4c(Cl)c(OC)cc(OC)c4Cl)ncn3)cc2)CC1 [BGJ398, reference compound] | attenuated | significantly compromised | significantly compromised |  |  |  |  |
| C[C@]1(O)CC[C@H]2[C@@H]3CCC4=CC(=O)CCC4=C3C=C[C@@]21C [R1881] |  |  |  | downregulated | greatly inhibited | downregulated |  |
| CNC(=O)c1ccc(N2C(=S)N(c3ccc(C#N)c(C(F)(F)F)c3)C(=O)C2(C)C)cc1F [enzalutamide] |  |  |  | significantly increased | enhanced | significantly increased |  |
| FGF1: known FGFR1 ligand used as a positive control |  |  |  |  |  |  | 10 |
